From patent US9340577B2, “HLA binding motifs and peptides and their uses” (priority 1992, dated 2016)
No end group written: not given here.

Columns and labels:
Experiment in all cases: biochemical
[1] = molecular target: DRB4*0101 (Homo sapiens, UniProt P01903+P13762, G164S); assay type: binding
[2] = molecular target: DR1 (DRB1*0101) (Homo sapiens, UniProt P01903+P01911, A100R/D57E/F55L/F60I/F76Y/I96L/L162R/M171V/P40L/Q125E/R42F/V115G/Y59C); assay type: binding
[3] = molecular target: DRB5*0101 (Homo sapiens, UniProt P01903+Q30154); conditions: Binding affinity DRB5 *0101
[4] = molecular target: DRB1*1302 (Homo sapiens, UniProt P01903+P01911, A100E/A169T/K41T/L162R/M171V/P40S/Q125H/Q178H/Q39Y/Q99D/R42S/S66N/T262R/V115G/W38E/Y61H); assay type: binding
[5] = molecular target: DRB1*0802 (Homo sapiens, UniProt P01903+P01911, A100R/A103L/A169T/F76Y/H45Y/I96F/K41T/L162R/M171V/P40S/Q125H/Q178H/Q39Y/Q99D/R218S/R42G/S66Y/V115G/W38E); assay type: binding
[6] = molecular target: DRB1*0405 (Homo sapiens, UniProt P01903+P01911, A100R/A169T/D86S/F76Y/I96L/K127E/L162R/M171V/N62H/P40V/Q125Y/R42H/S133A/S149N/S66Y/V115G/V209L/W38E); assay type: binding
[7] = molecular target: DR4w4 (DRB1*0401) (Homo sapiens, UniProt P01903+P01911, A100K/A169T/F76Y/I96L/K127E/L162R/M171V/N62H/P40V/Q125Y/R42H/S133A/S149N/S66Y/V115G/V209L/W38E); assay type: binding
[8] = molecular target: DRB1*1501 (Homo sapiens, UniProt P01903+P01911); assay type: binding
[9] = molecular target: DRB1*1201 (Homo sapiens, UniProt P01903+P01911, A100R/A169T/D57E/D86V/F55L/H45Y/K41T/L162R/M171V/P40S/Q125H/Q178H/Q39Y/Q99D/R42G/S66L/T262R/V114A/V67L/W38E/Y59H/Y61H/Y89S); assay type: binding
[10] = molecular target: DRB1*0901 (Homo sapiens, UniProt P01903+P01911, A100R/A103E/D57H/D86V/F55Y/F60I/F76Y/I96F/K127E/L162R/M171V/P40D/Q125H/Q99R/R33Q/R42F/S133A/S66N/T210M/V115G/W38K/Y107V/Y59G/Y89S); assay type: binding
[11] = molecular target: DRB1*0301 (Homo sapiens, UniProt P01903+P01911, A100K/A102G/A103R/A169T/F55Y/I96L/K41T/L162R/M171V/P40S/Q125H/Q178H/Q39Y/R42S/S66N/T106N/T262R/W38E/Y61H); assay type: binding
[12] = molecular target: DR7 (DRB1*0701) (Homo sapiens, UniProt P01903+P01911, A100R/A102G/A103Q/D57E/D86V/E43K/F76Y/K127E/L162R/M171V/P40G/Q125H/Q99D/R33Q/R42Y/R54Q/S133A/S66F/T210M/V115G/Y107V/Y59L/Y89S); assay type: binding
[13] = molecular target: DRB1*1101 (Homo sapiens, UniProt P01903+P01911, A100R/A169T/A87E/I96F/K41T/L162R/M171V/P40S/Q125H/Q178H/Q39Y/Q99D/R42S/S66Y/T262R/V115G/W38E); conditions: Binding affinity DRB1 *1101
DRB1*1101, sequence (P01903 26-254 limits assumed, other chains not shown): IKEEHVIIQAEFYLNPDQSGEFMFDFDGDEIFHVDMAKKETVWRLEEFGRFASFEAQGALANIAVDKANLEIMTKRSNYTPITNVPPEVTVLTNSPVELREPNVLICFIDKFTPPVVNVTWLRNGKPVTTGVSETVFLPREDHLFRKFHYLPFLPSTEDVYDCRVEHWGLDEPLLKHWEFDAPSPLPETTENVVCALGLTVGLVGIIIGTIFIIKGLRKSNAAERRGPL

DRB1*0301, sequence (P01903 26-254 limits assumed, other chains not shown): as above
DRB1*1302, sequence (P01903 26-254 limits assumed, other chains not shown): as above

Compound | IC50 [1] | IC50 [2] | IC50 [3] | IC50 [4] | IC50 [5] | IC50 [6] | IC50 [7] | IC50 [8] | IC50 [9] | IC50 [10] | IC50 [11] | IC50 [12] | IC50 [13]
CC[C@H](C)[C@H](NC(=O)[C@H](Cc1c[nH]c2ccccc12)NC(=O)[C@H](CCC(=O)O)NC(=O)[C@@H]1CCCN1)C(=O)N[C@@H](CCC(N)=O)C(=O)N[C@@H](CCCNC(=N)N)C(=O)N[C@@H](CCC(N)=O)C(=O)N[C@H](C(=O)N[C@H](C(=O)N[C@@H](CC(C)C)C(=O)N[C@@H](CCC(N)=O)C(=O)N[C@@H](Cc1c[nH]cn1)C(=O)N[C@@H](CO)C(=O)N[C@@H](Cc1ccccc1)C(=O)N[C@@H](CC(N)=O)C(=O)O)C(C)C)[C@@H](C)O [Peptide 89.0011] | 4.5 nM | 2260 nM | 11800 nM | 473 nM | 213 nM | 259 nM | 18 nM | 8860 nM | 4020 nM | 6180 nM | 155 nM | 6120 nM | –
CMLIQPPKLRSTAAA [Peptide 89.0047] | 567 nM | – | 904 nM | 3610 nM | 2650 nM | > 20000 nM | 2380 nM | 2640 nM | 3690 nM | 7540 nM | 5760 nM | 470 nM | 982 nM
CQAIELQLALEALNK [Peptide 90.0014] | 14 nM | 25 nM | 1910 nM | 214 nM | 3590 nM | 1520 nM | 450 nM | 200 nM | 1100 nM | 1780 nM | 466 nM | > 20000 nM | 3230 nM
DWVMAIFGVNPTVAE [Peptide 89.0079] | 6.5 nM | 58 nM | – | 60 nM | 6720 nM | 85 nM | 45 nM | 26 nM | 430 nM | 1620 nM | 431 nM | 108 nM | 1820 nM
IVHLKGDPNSLKCLR [Peptide 90.0255] | 1590 nM | 229 nM | 2560 nM | 574 nM | 2210 nM | > 20000 nM | 83 nM | 7830 nM | 4650 nM | > 20000 nM | 42 nM | > 20000 nM | –
LKAICIENNSKTAKR [Peptide 90.0064] | 85 nM | 62 nM | – | 144 nM | – | 369 nM | 36 nM | 359 nM | 4580 nM | > 20000 nM | 86 nM | 6350 nM | –
RGIIILLLIRFRCSK [Peptide 89.0063] | 283 nM | 674 nM | > 20000 nM | 352 nM | 6420 nM | 241 nM | 883 nM | 431 nM | 2010 nM | > 20000 nM | > 20000 nM | 721 nM | –
VDFIDTQLSICEQAE [Peptide 89.0078] | 471 nM | – | 1520 nM | 1550 nM | 7430 nM | 284 nM | 1280 nM | 609 nM | 2020 nM | 6000 nM | 3780 nM | 426 nM | 3920 nM
VEFMSFLTALKRFLQ [Peptide 89.0015] | 42 nM | 19 nM | 19 nM | 9820 nM | 102 nM | 453 nM | 72 nM | 1840 nM | 91 nM | – | 347 nM | 109 nM | 44 nM
YFKYFKEDAKKYSKT [Peptide 90.0253] | > 20000 nM | 4010 nM | 289 nM | > 20000 nM | – | > 20000 nM | 3620 nM | > 20000 nM | > 20000 nM | > 20000 nM | 108 nM | > 20000 nM | –
